# Data as given in patent publication US7635572B2, “Methods for conducting assays for enzyme activity on protein microarrays” (Life Technologies Corporation, priority 2004, dated 2009).
# Read-outs that look alike come from different tables or passages of the source.
# Tests used:
# Experiment in all cases: Further analysis of a plurality of inhibitors and a plurality of kinases on microarray (Example IX, Table 5);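 also: inhibition of each kinase by the inhibitors is given as a qualitative level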;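 as to Inhibition level, DYRK1A: level 0 none or unclear Level 1 marginal Level 2 substantial inhibition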;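 as to Inhibition level, DYRK2: level 0 none or unclear Level 1 marginal Level 2 substantial inhibition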;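 as to Inhibition level, MAP2K4: level 0 none or unclear Level 1 marginal Level 2 substantial inhibition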;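 as to Inhibition level, TLK2: level 0 none or unclear Level 1 marginal Level 2 substantial inhibition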
# Assay type in all cases: biochemical
# [1] = target: plurality of kinases (Table 5) (Homo sapiens, UniProt Q86UE8); conditions: plate C8
# Chain of plurality of kinases (Table 5) (Homo sapiens, UniProt Q86UE8) (Q86UE8 whole entry): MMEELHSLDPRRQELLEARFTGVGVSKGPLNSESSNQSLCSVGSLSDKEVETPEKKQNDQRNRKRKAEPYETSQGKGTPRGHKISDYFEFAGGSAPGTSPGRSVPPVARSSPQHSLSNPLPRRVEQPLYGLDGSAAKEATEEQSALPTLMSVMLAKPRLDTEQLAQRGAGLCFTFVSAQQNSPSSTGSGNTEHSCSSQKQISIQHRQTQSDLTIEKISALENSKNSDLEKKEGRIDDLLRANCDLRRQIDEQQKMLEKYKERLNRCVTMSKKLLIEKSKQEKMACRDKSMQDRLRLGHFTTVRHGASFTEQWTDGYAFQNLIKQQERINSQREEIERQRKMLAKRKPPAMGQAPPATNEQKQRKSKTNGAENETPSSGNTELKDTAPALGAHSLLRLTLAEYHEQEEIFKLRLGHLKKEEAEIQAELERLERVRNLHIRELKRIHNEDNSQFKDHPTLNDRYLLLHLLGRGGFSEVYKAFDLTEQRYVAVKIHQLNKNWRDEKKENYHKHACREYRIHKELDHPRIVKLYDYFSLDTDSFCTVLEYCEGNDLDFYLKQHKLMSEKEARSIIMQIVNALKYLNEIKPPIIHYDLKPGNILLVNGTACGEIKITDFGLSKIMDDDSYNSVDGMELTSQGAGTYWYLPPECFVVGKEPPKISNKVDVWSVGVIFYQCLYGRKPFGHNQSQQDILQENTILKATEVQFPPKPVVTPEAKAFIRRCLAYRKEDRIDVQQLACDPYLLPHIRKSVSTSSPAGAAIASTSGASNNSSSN
# [2] = target: plurality of kinases (Table 5) (Homo sapiens, UniProt P07949); conditions: plate B7
# Chain of plurality of kinases (Table 5) (Homo sapiens, UniProt P07949) (P07949 29-1114): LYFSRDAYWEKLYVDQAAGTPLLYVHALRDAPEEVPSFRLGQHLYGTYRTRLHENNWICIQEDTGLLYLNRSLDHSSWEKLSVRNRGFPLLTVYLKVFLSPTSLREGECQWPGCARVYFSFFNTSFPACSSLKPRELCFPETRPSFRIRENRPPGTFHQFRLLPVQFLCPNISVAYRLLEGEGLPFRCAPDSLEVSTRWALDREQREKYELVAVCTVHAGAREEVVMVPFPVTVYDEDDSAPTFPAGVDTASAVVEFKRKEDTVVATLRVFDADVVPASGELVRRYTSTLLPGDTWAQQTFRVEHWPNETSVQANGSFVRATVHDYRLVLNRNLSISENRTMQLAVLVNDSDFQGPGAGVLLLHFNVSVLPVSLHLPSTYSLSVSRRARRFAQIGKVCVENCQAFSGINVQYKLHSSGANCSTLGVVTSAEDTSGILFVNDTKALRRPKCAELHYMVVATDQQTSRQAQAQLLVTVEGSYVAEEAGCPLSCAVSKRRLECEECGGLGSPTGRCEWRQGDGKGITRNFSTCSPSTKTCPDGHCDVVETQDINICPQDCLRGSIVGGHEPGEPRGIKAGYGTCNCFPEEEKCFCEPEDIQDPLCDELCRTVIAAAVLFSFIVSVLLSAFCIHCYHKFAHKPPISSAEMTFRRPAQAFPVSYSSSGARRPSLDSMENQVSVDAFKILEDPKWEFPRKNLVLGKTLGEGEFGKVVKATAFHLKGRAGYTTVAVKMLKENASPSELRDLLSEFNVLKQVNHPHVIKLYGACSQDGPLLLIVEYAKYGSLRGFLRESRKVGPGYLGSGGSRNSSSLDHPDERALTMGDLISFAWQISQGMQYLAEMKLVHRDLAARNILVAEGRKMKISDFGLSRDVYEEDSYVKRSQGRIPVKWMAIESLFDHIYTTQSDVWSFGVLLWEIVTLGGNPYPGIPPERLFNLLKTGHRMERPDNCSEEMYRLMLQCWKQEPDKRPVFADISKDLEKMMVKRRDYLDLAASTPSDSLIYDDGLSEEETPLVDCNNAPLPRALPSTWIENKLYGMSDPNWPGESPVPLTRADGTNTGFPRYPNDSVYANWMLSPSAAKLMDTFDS
# [3] = target: T1, plurality of kinases (Table 5) (Homo sapiens, UniProt Q92630); conditions: plate D11
# T1 sequence (Q92630 1-601): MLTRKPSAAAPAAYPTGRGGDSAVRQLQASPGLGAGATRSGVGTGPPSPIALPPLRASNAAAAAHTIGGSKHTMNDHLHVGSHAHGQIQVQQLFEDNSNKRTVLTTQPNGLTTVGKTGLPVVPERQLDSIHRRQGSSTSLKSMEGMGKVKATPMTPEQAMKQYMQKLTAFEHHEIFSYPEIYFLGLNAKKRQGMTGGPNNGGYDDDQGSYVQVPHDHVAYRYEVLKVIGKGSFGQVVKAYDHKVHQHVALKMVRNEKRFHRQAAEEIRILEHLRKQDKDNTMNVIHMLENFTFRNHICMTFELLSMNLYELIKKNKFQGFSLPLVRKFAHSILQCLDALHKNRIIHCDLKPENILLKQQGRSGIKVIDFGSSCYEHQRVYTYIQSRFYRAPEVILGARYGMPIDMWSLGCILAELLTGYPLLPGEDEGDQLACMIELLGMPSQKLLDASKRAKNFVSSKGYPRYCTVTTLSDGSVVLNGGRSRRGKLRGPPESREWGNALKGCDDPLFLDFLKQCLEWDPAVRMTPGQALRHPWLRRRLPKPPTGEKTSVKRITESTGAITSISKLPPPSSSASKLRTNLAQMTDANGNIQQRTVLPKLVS
# [4] = target: plurality of kinases (Table 5) (Homo sapiens, UniProt P24723); conditions: plate B3
# Chain of plurality of kinases (Table 5) (Homo sapiens, UniProt P24723) (P24723 whole entry): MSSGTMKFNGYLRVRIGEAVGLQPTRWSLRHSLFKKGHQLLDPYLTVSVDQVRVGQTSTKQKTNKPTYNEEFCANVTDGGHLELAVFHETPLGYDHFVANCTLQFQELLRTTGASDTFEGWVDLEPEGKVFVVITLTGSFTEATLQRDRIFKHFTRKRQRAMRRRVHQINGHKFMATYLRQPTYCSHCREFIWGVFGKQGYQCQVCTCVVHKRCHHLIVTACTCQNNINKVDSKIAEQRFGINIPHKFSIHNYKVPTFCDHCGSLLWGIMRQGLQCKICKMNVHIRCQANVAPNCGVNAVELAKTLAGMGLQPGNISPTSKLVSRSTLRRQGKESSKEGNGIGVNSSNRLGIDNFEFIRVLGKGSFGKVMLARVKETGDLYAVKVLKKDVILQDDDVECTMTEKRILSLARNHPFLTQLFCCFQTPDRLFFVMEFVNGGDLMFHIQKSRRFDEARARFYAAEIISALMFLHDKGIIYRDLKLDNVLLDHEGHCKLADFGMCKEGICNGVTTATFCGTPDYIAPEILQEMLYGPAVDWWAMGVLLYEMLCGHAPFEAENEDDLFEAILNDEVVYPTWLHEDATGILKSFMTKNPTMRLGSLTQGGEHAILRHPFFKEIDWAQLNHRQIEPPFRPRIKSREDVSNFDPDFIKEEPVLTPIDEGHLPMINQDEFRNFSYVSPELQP
# [5] = target: plurality of kinases (Table 5) (Homo sapiens, UniProt Q13627); conditions: plate G6
# [6] = target: T2, plurality of kinases (Table 5) (Homo sapiens, UniProt P45985)
# T2 sequence (P45985 1-399): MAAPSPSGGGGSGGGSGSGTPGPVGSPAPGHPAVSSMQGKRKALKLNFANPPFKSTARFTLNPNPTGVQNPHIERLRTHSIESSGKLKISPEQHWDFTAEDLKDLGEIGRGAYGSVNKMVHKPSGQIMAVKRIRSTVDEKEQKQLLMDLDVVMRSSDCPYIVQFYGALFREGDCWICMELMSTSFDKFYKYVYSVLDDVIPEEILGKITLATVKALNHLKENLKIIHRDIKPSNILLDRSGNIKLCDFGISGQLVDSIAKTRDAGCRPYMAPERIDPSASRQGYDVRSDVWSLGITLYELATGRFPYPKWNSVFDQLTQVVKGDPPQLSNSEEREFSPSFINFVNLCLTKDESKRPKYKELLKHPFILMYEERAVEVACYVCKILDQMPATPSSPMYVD
# [7] = system: plurality of kinases (Table 5); conditions: for Inhibition level, Homo sapiens c: plate F4; for Inhibition level, Homo sapiens, o: plate F5; for Inhibition level, Homo sapiens, B: plate F7; for Inhibition level, Homo sapiens in: plate F9; for Inhibition level, Homo sapiens p: plate F10
# [8] = target: T3, plurality of kinases (Table 5) (Homo sapiens, UniProt P41743); conditions: plate A2
# T3 sequence (P41743 1-596): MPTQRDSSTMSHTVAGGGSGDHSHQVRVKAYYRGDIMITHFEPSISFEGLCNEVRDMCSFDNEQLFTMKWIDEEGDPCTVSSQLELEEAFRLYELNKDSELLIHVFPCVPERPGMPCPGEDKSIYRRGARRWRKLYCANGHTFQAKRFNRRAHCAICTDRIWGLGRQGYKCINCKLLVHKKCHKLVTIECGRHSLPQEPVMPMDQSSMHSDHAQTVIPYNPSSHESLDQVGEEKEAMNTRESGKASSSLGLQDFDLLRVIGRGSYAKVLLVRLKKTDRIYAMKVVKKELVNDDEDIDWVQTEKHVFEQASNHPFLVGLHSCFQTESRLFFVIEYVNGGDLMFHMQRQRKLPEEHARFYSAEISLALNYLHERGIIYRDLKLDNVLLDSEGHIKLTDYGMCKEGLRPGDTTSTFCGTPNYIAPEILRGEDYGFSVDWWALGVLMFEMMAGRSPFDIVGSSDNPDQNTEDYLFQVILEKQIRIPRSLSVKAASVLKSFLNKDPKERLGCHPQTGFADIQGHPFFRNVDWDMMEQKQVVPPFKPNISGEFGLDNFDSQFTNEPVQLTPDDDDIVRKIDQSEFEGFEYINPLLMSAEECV
Structure (SMILES),"Inhibition level, TLK2 ([1]; inhibitor 100 uM)","Inhibition level, RET ([2]; inhibitor 100 uM)","Inhibition level, DYRK2 ([3]; inhibitor 100 uM)","Inhibition level, PRKCH ([4]; inhibitor 100 uM)","Inhibition level, DYRK1A ([5]; inhibitor 100 uM)","Inhibition level, MAP2K4 ([6]; plate E6, inhibitor 100 uM)","Inhibition level, Homo sapiens, S ([7]; plate E9, inhibitor 100 uM)","Inhibition level, Homo sapiens, s ([7]; plate E11, inhibitor 100 uM)","Inhibition level, Homo sapiens, s ([7]; plate F3, inhibitor 100 uM)","Inhibition level, Homo sapiens c ([7]; inhibitor 100 uM)","Inhibition level, Homo sapiens, o ([7]; inhibitor 100 uM)","Inhibition level, Homo sapiens, S ([7]; plate F6, inhibitor 100 uM)","Inhibition level, Homo sapiens, B ([7]; inhibitor 100 uM)","Inhibition level, Homo sapiens, s ([7]; plate F8, inhibitor 100 uM)","Inhibition level, Homo sapiens in ([7]; inhibitor 100 uM)","Inhibition level, Homo sapiens p ([7]; inhibitor 100 uM)","Inhibition level, PRKCI ([8]; inhibitor 100 uM)",also measured
N#C/C(=C/c1ccc(O)c(O)c1)C(=O)NCc1ccccc1 [AG 490],2,2,2,2,2,0,0,2,0,2,2,0,2,0,1,2,2,
COc1cc2ncnc(Nc3cccc(Cl)c3)c2cc1OC [AG 1478],2,2,2,0,0,0,0,2,2,2,2,1,2,0,2,2,0,
O=c1c(-c2ccc(O)cc2)coc2cc(O)cc(O)c12 [Genistein],2,2,2,2,2,2,2,2,1,2,2,0,2,0,1,2,2,"Inhibition level, TLK2 ([1]; Genistein <3.7 mM): 0; Inhibition level, RET ([2]; Genistein, conc. not given): 0; Inhibition level, DYRK2 ([3]; Genistein, conc. not given): 1; Inhibition level, PRKCH ([4]; Genistein, conc. not given): 0; Inhibition level, DYRK1A ([5]; Genistein <3.7 mM): 1; Inhibition level, MAP2K4 ([6]; plate E6, Genistein <3.7 mM): 0; Inhibition level, Homo sapiens, s ([7]; plate F3, Genistein, conc. not given): 0; Inhibition level, Homo sapiens, o ([7]; Genistein, conc. not given): 0; Inhibition level, Homo sapiens, S ([7]; plate F6, Genistein, conc. not given): 0; Inhibition level, Homo sapiens, B ([7]; Genistein, conc. not given): 0; Inhibition level, Homo sapiens, s ([7]; plate F8, Genistein, conc. not given): 0; Inhibition level, Homo sapiens in ([7]; Genistein, conc. not given): 0; Inhibition level, Homo sapiens p ([7]; Genistein, conc. not given): 2; Inhibition level, PRKCI ([8]; Genistein <3.7 mM): 0"
O=S(=O)(NCCNC/C=C/c1ccc(Br)cc1)c1cccc2cnccc12 [H-89],2,0,2,2,2,1,2,1,2,2,1,2,0,1,2,2,2,
CC(C)(C)n1nc(-c2ccc(Cl)cc2)c2c(N)ncnc21 [PP2],2,2,2,2,1,2,2,2,2,2,2,2,2,0,2,2,1,
O=c1c(O)c(-c2ccc(O)c(O)c2)oc2cc(O)cc(O)c12 [Quercetin],0,,2,0,,0,,,,,,,,,,,0,
Cn1cc(C2=C(c3cn(CCCSC(=N)N)c4ccccc34)C(=O)NC2=O)c2ccccc21 [Ro-31-8220],1,0,2,2,2,1,0,2,2,2,2,2,0,0,0,2,0,"Inhibition level, TLK2 ([1]; Ro-31-8220 90 uM): 2; Inhibition level, RET ([2]; Ro-31-8220, conc. not given): 2; Inhibition level, DYRK2 ([3]; Ro-31-8220, conc. not given): 0; Inhibition level, PRKCH ([4]; Ro-31-8220, conc. not given): 2; Inhibition level, DYRK1A ([5]; Ro-31-8220 90 uM): 0; Inhibition level, MAP2K4 ([6]; plate E6, Ro-31-8220 90 uM): 0; Inhibition level, Homo sapiens, s ([7]; plate F3, Ro-31-8220, conc. not given): 2; Inhibition level, Homo sapiens, o ([7]; Ro-31-8220, conc. not given): 0; Inhibition level, Homo sapiens, S ([7]; plate F6, Ro-31-8220, conc. not given): 0; Inhibition level, Homo sapiens, B ([7]; Ro-31-8220, conc. not given): 2; Inhibition level, Homo sapiens, s ([7]; plate F8, Ro-31-8220, conc. not given): 2; Inhibition level, Homo sapiens in ([7]; Ro-31-8220, conc. not given): 2; Inhibition level, Homo sapiens p ([7]; Ro-31-8220, conc. not given): 2; Inhibition level, PRKCI ([8]; Ro-31-8220 90 uM): 2"
CN[C@@H]1C[C@H]2O[C@@](C)([C@@H]1OC)n1c3ccccc3c3c4c(c5c6ccccc6n2c5c31)C(=O)NC4 [Staurosporine],,,,,,,,,,,,,,,,,,"Inhibition level, TLK2 ([1]; Staurosporine 21.5 uM): 2; Inhibition level, MAP2K4 [6]: 0"
